Experimental data published in patent publication US8399502B2, “Analogs of indole-3-carbinol and their use as agents against infection” (priority 2008, dated 2013).
Converted amounts (≈) assume the structure as drawn.

How the values were obtained:
Assay in all cases: microbe, parasite or virus in culture
Format in all cases: cell-based
[1] = tested on: Bacillus anthracis (BA; Gram-positive); conditions: read-out: MIC BA
[2] = tested on: Burkholderia mallei (BM; Gram-negative); conditions: read-out: MIC BM
[3] = tested on: Burkholderia pseudomallei (BP; Gram-negative); conditions: read-out: MIC BP
[4] = tested on: Yersinia pestis (YP; Gram-negative); conditions: read-out: MIC YP
[5] = tested on: Brucella abortus (BAB; Gram-negative); conditions: read-out: MIC BAB
[6] = tested on: Francisella tularensis (FT; Gram-negative); conditions: read-out: MIC FT

| Compound | MIC [1] [µg/mL] | MIC [2] [µg/mL] | MIC [3] [µg/mL] | MIC [4] [µg/mL] | MIC [5] [µg/mL] | MIC [6] [µg/mL] |
| --- | --- | --- | --- | --- | --- | --- |
| C/N=C(\NC)NCCCOc1c2[nH]c3ccc(Cl)cc3c2cc2c1[nH]c1ccc(Cl)cc12 | 0.5 (≈ 1.07 µM) | 4 (≈ 8.54 µM) | 4 (≈ 8.54 µM) | 1 (≈ 2.13 µM) | 0.5 (≈ 1.07 µM) | 1 (≈ 2.13 µM) |
| NCCOc1c2[nH]c3ccc(F)cc3c2cc2c1[nH]c1ccc(F)cc12 | 4 (≈ 11.4 µM) | 8 (≈ 22.8 µM) | 16 (≈ 45.5 µM) | 4 (≈ 11.4 µM) | 1 (≈ 2.85 µM) | 2 (≈ 5.69 µM) |
| Fc1ccc2[nH]c3c(OC[C@H]4CCCN4)c4[nH]c5ccc(F)cc5c4cc3c2c1 | 0.5 (≈ 1.28 µM) | 8 (≈ 20.4 µM) | 8 (≈ 20.4 µM) | 2 (≈ 5.11 µM) | 0.5 (≈ 1.28 µM) | 0.5 (≈ 1.28 µM) |
| CC/N=C(/NCCCOc1c2[nH]c3ccc(F)cc3c2cc2c1[nH]c1ccc(F)cc12)NCCCN(C)C | ≤ 0.25 | 4 (≈ 7.68 µM) | 8 (≈ 15.4 µM) | 4 (≈ 7.68 µM) | 0.5 (≈ 0.96 µM) | ≤ 0.25 |
| CN(C)CCCc1c2[nH]c3ccc(F)cc3c2cc2c1[nH]c1ccc(F)cc12 | 1 (≈ 2.65 µM) | 16 (≈ 42.4 µM) | > 16 | 8 (≈ 21.2 µM) | 1 (≈ 2.65 µM) | 1 (≈ 2.65 µM) |
| COc1c2[nH]c3ccc(F)cc3c2cc2c1[nH]c1ccc(F)cc12 [drawing 194] | 1 (≈ 3.1 µM) | > 16 | > 16 | > 16 | 1 (≈ 3.1 µM) | 0.5 (≈ 1.55 µM) |
| Clc1ccc2[nH]c3c(OCCCn4cncn4)c4[nH]c5ccc(Cl)cc5c4cc3c2c1 | 0.5 (≈ 1.11 µM) |  |  |  |  | 0.25 (≈ 0.555 µM) |
| Fc1ccc2[nH]c3c(OCCCn4cncn4)c4[nH]c5ccc(F)cc5c4cc3c2c1 [drawing 231] | 0.5 (≈ 1.2 µM) | > 8 | > 8 | > 8 | 1 (≈ 2.4 µM) | 1 (≈ 2.4 µM) |
| NC1CCN(CCOc2c3[nH]c4ccc(Cl)cc4c3cc3c2[nH]c2ccc(Cl)cc23)CC1 | 2 (≈ 4.28 µM) |  |  | 16 (≈ 34.2 µM) | 1 (≈ 2.14 µM) | 0.5 (≈ 1.07 µM) |
| NCCCOc1c2[nH]c3ccc(F)cc3c2cc2c1[nH]c1ccc(F)cc12 | 0.5 (≈ 1.37 µM) | 8 (≈ 21.9 µM) | 8 (≈ 21.9 µM) | 2 (≈ 5.47 µM) | 0.5 (≈ 1.37 µM) | 0.5 (≈ 1.37 µM) |
| CN(C)C1CCN(CCOc2c3[nH]c4ccc(F)cc4c3cc3c2[nH]c2ccc(F)cc23)C1 (stereo not shown) | 1 (≈ 2.23 µM) |  |  | > 8 | 0.5 (≈ 1.11 µM) | 0.5 (≈ 1.11 µM) |
| Fc1ccc2[nH]c3c(O[C@@H]4CCNC4)c4[nH]c5ccc(F)cc5c4cc3c2c1 [drawing 253] | < 0.25 | 2 (≈ 5.3 µM) | 4 (≈ 10.6 µM) | 1 (≈ 2.65 µM) | < 0.25 | ≤ 0.25 |
| Clc1ccc2[nH]c3c(OCCCNCc4cnc[nH]4)c4[nH]c5ccc(Cl)cc5c4cc3c2c1 | 0.5 (≈ 1.05 µM) |  |  | 4 (≈ 8.36 µM) | 0.5 (≈ 1.05 µM) | 1 (≈ 2.09 µM) |
| N=C(N)NCCCOc1c2[nH]c3ccc(F)cc3c2cc2c1[nH]c1ccc(F)cc12 [drawing 232] | 0.5 (≈ 1.23 µM) | 2 (≈ 4.91 µM) | 4 (≈ 9.82 µM) | 8 (≈ 19.6 µM) | 0.25 (≈ 0.614 µM) | 1 (≈ 2.45 µM) |
| NC1CCN(CCCOc2c3[nH]c4ccc(Cl)cc4c3cc3c2[nH]c2ccc(Cl)cc23)CC1 | 2 (≈ 4.15 µM) | 16 (≈ 33.2 µM) | > 16 | 4 (≈ 8.31 µM) | 1 (≈ 2.08 µM) | 1 (≈ 2.08 µM) |
| Nc1nnc(N)n1CCCOc1c2[nH]c3ccc(Cl)cc3c2cc2c1[nH]c1ccc(Cl)cc12 | 1 (≈ 2.08 µM) | > 8 | > 8 | 4 (≈ 8.33 µM) | 1 (≈ 2.08 µM) | 1 (≈ 2.08 µM) |
| CN(C)CCOc1c2[nH]c3ccc(F)cc3c2c(Br)c2c1[nH]c1ccc(F)cc12 | 0.25 (≈ 0.545 µM) | > 8 | > 8 | > 8 | 0.25 (≈ 0.545 µM) | 0.25 (≈ 0.545 µM) |
| FC(F)(F)c1c2[nH]c3ccccc3c2cc2c1[nH]c1ccccc12 | 1 (≈ 3.08 µM) | > 16 | > 16 | > 16 | 2 (≈ 6.17 µM) | 0.5 (≈ 1.54 µM) |
| N[C@H]1CCN(CCCOc2c3[nH]c4ccc(Cl)cc4c3cc3c2[nH]c2ccc(Cl)cc23)C1 | 0.5 (≈ 1.07 µM) | > 8 | > 8 | 2 (≈ 4.28 µM) | 0.25 (≈ 0.535 µM) | 0.5 (≈ 1.07 µM) |
| Clc1ccc2[nH]c3c(OCCCn4cnnc4)c4[nH]c5ccc(Cl)cc5c4cc3c2c1 | 0.25 (≈ 0.555 µM) |  |  |  |  | 0.5 (≈ 1.11 µM) |
| CC(CN(C)C)Oc1c2[nH]c3ccc(F)cc3c2cc2c1[nH]c1ccc(F)cc12 (stereo not shown) | 1 (≈ 2.54 µM) |  |  | 16 (≈ 40.7 µM) | 0.5 (≈ 1.27 µM) | 0.5 (≈ 1.27 µM) |
| Clc1ccc2[nH]c3c(OCCCNCc4ccc[nH]4)c4[nH]c5ccc(Cl)cc5c4cc3c2c1 | 0.5 (≈ 1.05 µM) | > 8 | > 8 | 2 (≈ 4.19 µM) | 0.5 (≈ 1.05 µM) | 0.5 (≈ 1.05 µM) |
| Clc1ccc2[nH]c3c(OCCCNCc4ncc[nH]4)c4[nH]c5ccc(Cl)cc5c4cc3c2c1 | 1 (≈ 2.09 µM) | > 8 | > 8 | 2 (≈ 4.18 µM) | 0.5 (≈ 1.05 µM) | 1 (≈ 2.09 µM) |

| Compound | MIC [1] [µg/mL] | MIC [2] [µg/mL] | MIC [3] [µg/mL] | MIC [4] [µg/mL] | MIC [5] [µg/mL] | MIC [6] [µg/mL] |
| --- | --- | --- | --- | --- | --- | --- |
| Clc1ccc2[nH]c3c(O[C@@H]4CCNC4)c4[nH]c5ccc(Cl)cc5c4cc3c2c1 | ≤ 0.25 | 2 (≈ 4.87 µM) | > 8 | 1 (≈ 2.44 µM) | ≤ 0.25 | ≤ 0.25 |
| Fc1ccc2[nH]c3c(OC4CCNCC4)c4[nH]c5ccc(F)cc5c4cc3c2c1 | ≤ 0.25 | 4 (≈ 10.2 µM) | 8 (≈ 20.4 µM) | 8 (≈ 20.4 µM) | ≤ 0.25 | ≤ 0.25 |
| Cc1c2[nH]c3ccc(F)cc3c2cc2c1[nH]c1ccc(F)cc12 | 0.5 (≈ 1.63 µM) | > 16 | > 16 | > 16 | 1 (≈ 3.26 µM) | 0.5 (≈ 1.63 µM) |
| Nc1nc(N)n(CCCOc2c3[nH]c4ccc(Cl)cc4c3cc3c2[nH]c2ccc(Cl)cc23)n1 | 0.5 to 1 (≈ 1.04 to 2.08 µM) | > 8 | > 8 | 8 (≈ 16.7 µM) | 1 (≈ 2.08 µM) | 1 (≈ 2.08 µM) |
| N=C(N)NCCCOc1c2[nH]c3ccc(Cl)cc3c2cc2c1[nH]c1ccc(Cl)cc12 [drawing 217] | 0.25 (≈ 0.568 µM) | 1 (≈ 2.27 µM) | 2 (≈ 4.54 µM) | 1 (≈ 2.27 µM) | 0.25 (≈ 0.568 µM) | 0.25 (≈ 0.568 µM) |
| Clc1ccc2[nH]c3c(OCCCNC4CCNCC4)c4[nH]c5ccc(Cl)cc5c4cc3c2c1 | 1 (≈ 2.08 µM) | 4 (≈ 8.31 µM) | 8 (≈ 16.6 µM) | 2 (≈ 4.15 µM) | 1 (≈ 2.08 µM) | 1 (≈ 2.08 µM) |
| CC(C)/N=C(/NCCCOc1c2[nH]c3ccc(F)cc3c2cc2c1[nH]c1ccc(F)cc12)NC(C)C | 0.5 (≈ 1.02 µM) |  |  | 4 (≈ 8.14 µM) | 1 (≈ 2.03 µM) | 1 (≈ 2.03 µM) |
| Fc1ccc2[nH]c3c(OC4CCNC4)c4[nH]c5ccc(F)cc5c4cc3c2c1 (stereo not shown) | ≤ 0.25 | 2 (≈ 5.3 µM) | 4 (≈ 10.6 µM) | 1 (≈ 2.65 µM) | ≤ 0.25 | 0.5 (≈ 1.32 µM) |
| Clc1ccc2[nH]c3c(OCC4CCCN4)c4[nH]c5ccc(Cl)cc5c4cc3c2c1 (stereo not shown) | 1 (≈ 2.36 µM) | 4 (≈ 9.43 µM) | 8 (≈ 18.9 µM) | 1 (≈ 2.36 µM) | 0.5 (≈ 1.18 µM) | 0.5 (≈ 1.18 µM) |
| Clc1ccc2[nH]c3c(OC4CCNC4)c4[nH]c5ccc(Cl)cc5c4cc3c2c1 (stereo not shown) | 0.5 to 1 (≈ 1.22 to 2.44 µM) | 2 (≈ 4.87 µM) | 4 (≈ 9.75 µM) | 1 (≈ 2.44 µM) | 0.25 (≈ 0.609 µM) | 0.25 to 1 (≈ 0.609 to 2.44 µM) |
| N[C@H]1CC[C@@H](Oc2c3[nH]c4ccc(F)cc4c3cc3c2[nH]c2ccc(F)cc23)CC1 | 0.5 (≈ 1.23 µM) | > 8 | > 8 | 4 (≈ 9.87 µM) | 0.5 (≈ 1.23 µM) | 1 (≈ 2.47 µM) |
| Clc1ccc2[nH]c3c(OCCCc4nnn[nH]4)c4[nH]c5ccc(Cl)cc5c4cc3c2c1 | 0.5 (≈ 1.11 µM) | > 8 | > 8 | > 8 | 1 (≈ 2.22 µM) | 1 (≈ 2.22 µM) |
| Fc1ccc2[nH]c3c(OCCCNC4=NCCN4)c4[nH]c5ccc(F)cc5c4cc3c2c1 [drawing 234] | 1 (≈ 2.31 µM) | 8 (≈ 18.5 µM) | > 8 | 8 (≈ 18.5 µM) | 2 (≈ 4.61 µM) | 2 (≈ 4.61 µM) |
| NC1CCN(CCCOc2c3[nH]c4ccc(F)cc4c3cc3c2[nH]c2ccc(F)cc23)CC1 | 0.5 (≈ 1.11 µM) |  |  | 2 (≈ 4.46 µM) | 0.5 (≈ 1.11 µM) | 0.125 to 0.5 (≈ 0.279 to 1.11 µM) |
| Clc1ccc2[nH]c3c(OCC4CCNCC4)c4[nH]c5ccc(Cl)cc5c4cc3c2c1 | 0.5 (≈ 1.14 µM) | 8 (≈ 18.2 µM) | > 8 | 2 (≈ 4.56 µM) | ≤ 0.25 | 0.5 (≈ 1.14 µM) |
| COc1c2[nH]c3ccc(F)cc3c2c(N2CCCC2)c2c1[nH]c1ccc(F)cc12 | 1 (≈ 2.55 µM) | > 16 | > 16 | > 16 | 2 (≈ 5.11 µM) | 0.5 (≈ 1.28 µM) |
| Nc1nnnn1CCCOc1c2[nH]c3ccc(Cl)cc3c2cc2c1[nH]c1ccc(Cl)cc12 | 0.5 (≈ 1.07 µM) | > 8 | > 8 | > 8 | 0.5 (≈ 1.07 µM) | 1 (≈ 2.14 µM) |
| Fc1ccc2[nH]c3c(OCCN4CCCC4)c4[nH]c5ccc(F)cc5c4cc3c2c1 | 1 (≈ 2.47 µM) | > 16 | > 16 | 8 (≈ 19.7 µM) | 1 (≈ 2.47 µM) | 0.5 (≈ 1.23 µM) |
| CCOC(=O)c1ccc2[nH]c3c(OCCN)c4[nH]c5ccc(C(=O)OCC)cc5c4cc3c2c1 | 2 (≈ 4.35 µM) | > 8 | > 8 | > 8 | 1 (≈ 2.18 µM) | 1 (≈ 2.18 µM) |
| OC1CN(CCCOc2c3[nH]c4ccc(Cl)cc4c3cc3c2[nH]c2ccc(Cl)cc23)C1 | 0.5 (≈ 1.1 µM) |  |  | 4 (≈ 8.8 µM) | 1 (≈ 2.2 µM) | 0.5 (≈ 1.1 µM) |
| CCN(CC)CCOc1c2[nH]c3ccc(F)cc3c2cc2c1[nH]c1ccc(F)cc12 | 1 (≈ 2.45 µM) |  |  | > 16 | 1 (≈ 2.45 µM) | 0.5 (≈ 1.23 µM) |
| N[C@H]1CCN(CCCOc2c3[nH]c4ccc(F)cc4c3cc3c2[nH]c2ccc(F)cc23)C1 | 1 (≈ 2.3 µM) |  |  | 4 (≈ 9.21 µM) | 1 (≈ 2.3 µM) | 0.5 (≈ 1.15 µM) |
